This data set concerns HPV-Ker cells. The data set can be described thus: Viability test of HPV-Ker keratinocytes by real-time impedance monitoring (xCELLigence RTCA). The format is cell-based, human. The settings on record: for IC50: Homo sapiens, Keratinocyte; for cytotoxic effect against keratinocytes / keratinocyte inhibitory activity in vitro (overall verdict): HPV-Ker; for keratinocyte inhibitory activity in vitro (overall verdict): compared to ingenol mebutate. The source says:
The main risk factor of induction of AK is UV irradiation. The UVB component of sunlight damages DNA, which might cause mutations in p53 and other tumor suppressor genes. Therefore, as an in vitro model of AK, we used the HPV-Ker cell line which contains the E6 oncoprotein of the human papillomavirus, leading to the degradation of the p53 tumor suppressor [26].
Since our compounds, especially the ingenol-derivatives, are structurally very similar to ingenol mebutate (Figure 3), we were interested in whether they have any effect on the viability of keratinocytes. The HPV-Ker cell line was treated with the isolated ingol- and ingenol-type diterpenoids with a concentration range of 5 × 10^−9–5 × 10^−4 M, the viability was measured with the xCELLigence System RTCA HT (Agilent Technologies, Santa Clara, CA, USA) instrument for 72 h, and data at 24 and 48 h were used for calculations (Table 1). IC50 values were calculated based on the sigmoidal dose–response formula.
The immortalized human keratinocyte cell line (HPV-Ker) was cultured in Keratinocyte-SFM supplemented with 5 ng/mL of recombinant epidermal growth factor, […] of bovine pituitary extract, and antibiotic/antimycotic solution in a CO2 thermostat at 37 °C.
The effect of the extracts and the purified compounds on HPV-Ker cells was investigated by real-time monitoring with the xCELLigence System RTCA HT Instrument (ACEA Biosciences, San Diego, CA, USA). 8 × 10^3 HPV-Ker cells were seeded in 96-well E-plates and keratinocytes were allowed to attach to the bottom of the wells and grow for 24 h. Cells were then treated with the indicated extract or substance for another 72 h. Real-time measurements of impedance were monitored every 15 min, then data at 24 and 48 h were used for calculations. The half-maximal inhibitory concentration (IC50) values for the compounds were calculated and GraphPad Prism 9.0 was used to plot results. All experiments were performed in duplicate, in three independent repeats.

[1] abbreviates: HPV-Ker cell line, 24 h of treatment, ± SD, read-out: IC50 Value 24 h.
Where [2] appears, read: HPV-Ker cell line, 48 h of treatment, ± SD, read-out: IC50 Value 48 h.
[3] abbreviates: HPV-Ker cells, RTCA normalized CI * hours, 24 h, read-out: IC50 (24h), Figure 4.
The mark [4] stands for this setting: HPV-Ker cells, RTCA normalized CI * hours, 48 h, read-out: IC50 (48h), Figure 4.

Like-named read-outs stand apart in the source and are kept apart here.

As usually defined, the IC50 is the concentration that gives 50% inhibition. With `C/C=C(/C)C(=O)O[C@@H]1C(C)=C[C@@H]2C(=O)C3(C=C(C)[C@H](O)[C@@]13O)[C@H](C)C[C@@H]1[C@H]2[C@]1(C)COC(C)=O` [Compound 9, 17-acetoxy-20-deoxyingenol 5-angelate], the IC50 turned out to be 14800 ± 3830 nM under setting [1] and 7930 ± 1710 nM under setting [2].
Take `C/C=C(/C)C(=O)O[C@H]1C(C)=C[C@]23C(=O)[C@@H](C=C(CO)[C@@H](O)[C@]12O)[C@H]1[C@@H](C[C@H]3C)C1(C)C` [Ingenol mebutate, reference compound]: the “cytotoxic effect against keratinocytes” value is recorded as “weaker, but still significant, cytotoxic effect” (0.5 µg/mL, 24 h); “comparable to the treatment when 5 µg/mL was used for 48 h” (0.5 µg/mL, 48 h); “strongest cytotoxic effect” (5 µg/mL, 24 h); “lower cytotoxicity” (5 µg/mL, 48 h). For the same compound, the IC50 is 840 ± 10 nM under setting [1], 960 ± 30 nM under setting [2], 844 nM under setting [3] and 959 nM under setting [4].
For the compound `C/C=C(/C)C(=O)O[C@H]1C(C)=CC23C(=O)[C@@H](C=C(COC(C)=O)[C@@H](OC(C)=O)[C@]12O)[C@H]1[C@@H](C[C@H]3C)[C@@]1(C)COC(C)=O` [Compound 7, 17-acetoxyingenol 3 angelate 5,20-diacetate], the “keratinocyte inhibitory activity in vitro (overall verdict)” value is “strong keratinocyte inhibitory activity”. Also, under setting [1], the IC50 worked out at 320 ± 20 nM. For the same compound, the IC50 under setting [2] came to 870 ± 70 nM. For the same compound, the half-inhibitory concentration (IC50) under setting [3] came out at 323 nM. Also, the IC50 under setting [4] amounted to 873 nM.
Take `CO[C@H]1[C@H]2[C@@H]([C@@H](OC(C)=O)[C@@H](C)C(=O)[C@@]34C[C@H](C)[C@H](OC(C)=O)[C@]3(/C=C(\C)[C@H]1OC(=O)c1ccccc1)O4)C2(C)C` [Compound 3, 8-O-methyl-ingol 3,12-diacetate 7-benzoate]: the “IC50 Value 24 h” value (HPV-Ker cell line, 24 h of treatment, ± SD) is “inactive”. For the same compound, the “IC50 Value 48 h” value (HPV-Ker cell line, 48 h of treatment, ± SD) is “inactive”.
As for `C/C=C(\C)C(=O)O[C@@H]1/C(C)=C/[C@@]23O[C@@]2(C[C@H](C)[C@@H]3OC(C)=O)C(=O)[C@H](C)[C@H](OC(C)=O)[C@@H]2[C@H]([C@@H]1OC)C2(C)C` [Compound 2, 8-O-methyl-ingol 3,12-diacetate 7-tigliate], the IC50 runs as follows: under setting [1], 17300 ± 1650 nM; under setting [2], 14500 ± 3780 nM.
For `C/C=C(/C)C(=O)O[C@H]1C(C)=CC23C(=O)[C@@H](C=C(C)[C@@H](O)[C@]12O)[C@H]1[C@@H](C[C@H]3C)[C@@]1(C)COC(C)=O` [Compound 8, 17-acetoxy-20-deoxyingenol 3-angelate], the IC50 under setting [1] turned out to be 4320 ± 920 nM.
`C/C=C(\C)C(=O)O[C@@H]1/C(C)=C/[C@@]23O[C@@]2(C[C@H](C)[C@@H]3OC(C)=O)C(=O)[C@H](C)[C@H](OC(C)=O)[C@@H]2[C@H]([C@@H]1O)C2(C)C` [Compound 1, Ingol 3,12-diacetate 7-tigliate]: the IC50 by setting is: under setting [1], 14200 ± 2850 nM; under setting [2], 1720 ± 140 nM.
In the case of `C/C=C(/C)C(=O)O[C@H]1C(C)=CC23C(=O)[C@@H](C=C(COC(C)=O)[C@@H](O)[C@]12O)[C@H]1[C@@H](C[C@H]3C)[C@@]1(C)COC(C)=O` [Compound 6, 17-acetoxyingenol 3-angelate 20-acetate], the “keratinocyte inhibitory activity in vitro (overall verdict)” value is given as “strong keratinocyte inhibitory activity”. Also, under setting [1], the IC50 came out at 390 ± 90 nM. For the same compound, under setting [2], the IC50 is 320 ± 50 nM.
